How the values were obtained:
[1] = Physical Stability Study (proton NMR after storage exposed to air); format: physicochemical; conditions: room temperature
Text: FIG. 1: […] NMR spectrum of magnesium bis-lysinate bis-EPA taken on the day the compound was synthesized (upper trace) and 60 days later (lower trace) with the compound having been exposed to air at room temperature for the entire 60-day period.
Since the compounds of Formula IA and IB, and the compositions comprising same or mixtures of same, described herein are solids (not oils) and they are very stable against oxidative degradation of the fatty acid component, particularly when compared to the free fatty acid or fatty acid ester forms of the fatty acids, which are highly susceptible to oxidative degradation in their liquid forms and consequently tend to degrade when exposed to air or humidity. […] This is evidenced, for example by no significant change in physical properties, such as flow characteristics, or in chemical properties, as measured by NMR spectroscopy, following days of storage in an open vial at room temperature and standard humidity, for example following from about 7 to 14 days or up to 30, up to 60, or up to 90 days of storage.
The compounds of the invention are remarkably stable compared to omega-3 polyunsaturated free fatty acids, which typically show evidence of oxidative degradation with hours of exposure to atmospheric oxygen. […]

[2] = set-up: species or system rats; conditions: rat, in vivo, po
Text: The results of a single dose, oral pharmacokinetic study in rats for a compound of Formula III (designated TP-252, Mg-Lys2-EPA2) are shown in Table 3 below. One of the parameters shown in […] is the area under the curve (AUC), which is the integral of a plot of concentration of drug in blood plasma against time. The AUC is proportional to the total amount of the active pharmaceutical agent (API) that reaches the blood circulation. In this example, the API (or analyte) is EPA. AUC and Cmax are given for the compound of Formula III, EPA free fatty acid (EPA FFA), and EPA ethyl ester (EPA EE). EPA ethyl ester is the FDA-approved form of EPA.

CC/C=C\C/C=C\C/C=C\C/C=C\C/C=C\CCCC(=O)O.CC/C=C\C/C=C\C/C=C\C/C=C\C/C=C\CCCC(=O)O.NCCCC[C@H](N)C(=O)[O-].NCCCC[C@H](N)C(=O)[O-].[Mg+2] [TP-252, Magnesium Bis-Lysinate Bis-EPA Dihydrate]
chemically stable (no evidence of oxidation or degradation by proton NMR) [1]: at least 60 days | EPA delivered to the blood plasma compared with equivalent doses of EPA free fatty acid or EPA ethyl ester [2]: significantly more EPA

From patent US9999626B2, “Mineral amino-acid complexes of active agents” (Thetis Pharmaceuticals LLC, priority 2014, dated 2018)
